Consider one molecule from publication PMC9538324 (Journal of medical virology, 2022).

The conditions of test [1]: human, in vivo; cited from earlier work.
The subject of another test is SARS-CoV-2 Beta variant. The experiment in a line: Virucidal assay. As to conditions: virus pretreated with 10 μM, compared with untreated and post-treated controls.

For `CCc1nc(C(N)=O)c(Nc2ccc(N3CCC(N4CCN(C)CC4)CC3)c(OC)c2)nc1NC1CCOCC1` [Gilteritinib, gilteritinib], the clinical outcome in test [1] is “successful remission”. Besides, in the test with SARS-CoV-2 Beta variant, the “virucidal effect on virus viability” value was “did not greatly reduce viability”.
